Laboratory results reported in ChEMBL document CHEMBL5107986, “Small molecule NS5B RdRp non-nucleoside inhibitors for the treatment of HCV infection: A medicinal chemistry perspective” (Eur J Med Chem, 2022).

What was measured:
Assay type in all cases: functional, organism-based, Hepacivirus hominis
[1] = test system: Hepatitis C virus; assay: Antiviral activity against intrinsic HCV GT1a assessed as reduction in viral replication
[2] = test system: Hepatitis C virus; assay: Antiviral activity against HCV GT1b assessed as inhibition of viral replication
[3] = test system: Hepatitis C virus; assay: Antiviral activity against HCV GT1b assessed as reduction in viral replication
[4] = test system: Hepatitis C virus; assay: Antiviral activity against HCV GT1b C316Y assessed as reduction in viral replication
[5] = test system: Hepatitis C virus; assay: Antiviral activity against HCV GT1b 316N assessed as reduction in viral replication
[6] = test system: Hepatitis C virus; assay: Antiviral activity against intrinsic HCV GT2a assessed as reduction in viral replication

| SMILES | EC50 [1] [nM] | EC50 [3] [nM] | further results |
| --- | --- | --- | --- |
| CC(C)N(c1cc(C#CC(C)(C)C)sc1C(=O)O)C(=O)[C@H]1CC[C@H](C)CC1 | 5.5 | – | – |
| COc1ccc2c(c1)C=C1Cn3c-2c(C2CCCCC2)c2ccc(cc23)C(=O)NS(=O)(=O)N(C)CCCCN(C)C1=O | – | 75 | IC50 [2]: 26 nM |
| O=C1N/C(=N\c2nnc(-c3ccc(Cl)cc3)s2)S/C1=C\c1c(Cl)cccc1Cl | – | – | IC50 [2]: 5600 nM |
| O=C1N/C(=N\c2nnc(-c3ccc(F)cc3)s2)S/C1=C\c1c(Cl)cccc1Cl | – | – | IC50 [2]: 19800 nM |
| CNC(=O)c1c(-c2ccc(F)cc2)oc2cc(N(Cc3ccc(B(O)O)c(F)c3)S(C)(=O)=O)c(C3CC3)cc12 | – | 1.7 | EC50 [4]: 1.9 nM |
| CC(C)(C)C#Cc1cc(N(C(=O)[C@H]2CC[C@H](C)CC2)[C@H]2CC[C@H](Oc3cccnc3)CC2)c(C(=O)O)s1 | 3.6 | – | – |
| CC(C)(C)C#Cc1cc(N(C(=O)[C@H]2CC[C@H](C)CC2)[C@H]2CC[C@H](OC3CCOC3)CC2)c(C(=O)O)s1 (stereo partly specified) | 8.1 | – | – |
| CC(C)(C)C#Cc1cc(N(C(=O)[C@H]2CC[C@H](C)CC2)[C@H]2CC[C@](O)(CO[C@H]3CCOC3)CC2)c(C(=O)O)s1 | 2.2 | – | – |
| CC1=CC[C@H](C(=O)N(c2cc(C#CC(C)(C)C)sc2C(=O)O)C(C)C)CC1 | 2.2 | – | – |
| CNC(=O)c1c(-c2ccc(F)cc2)oc2cc(N(c3cc(Cl)c4c(c3)COB4O)S(C)(=O)=O)c(C3CC3)cc12 | 1.3 | 2.5 | EC50 [5]: 2.5 nM |
| CNC(=O)c1c(-c2ccc(F)cc2)oc2cc(N(C)S(C)(=O)=O)c(-c3cccc(CNS(=O)(=O)c4cccc(OC)c4)c3)cc12 | – | 1 | EC50 [6]: 6 nM |
| CNC(=O)c1c(-c2ccc(F)cc2)oc2cc(N(C)S(C)(=O)=O)c(-c3ccc(OC)c(-c4nc5c(F)cccc5o4)c3)cc12 | – | 3.1 | EC50 [4]: 9.2 nM |
| CNC(=O)c1c(-c2ccc(F)cc2)oc2cc(N(C)S(C)(=O)=O)c(-c3ccccc3)cc12 | – | 120 | – |
| CNC(=O)c1c(-c2ccc(F)cc2)oc2cc(N(C)S(C)(=O)=O)c(-c3ccc(OC)cc3)cc12 | – | 16 | EC50 [6]: 60 nM |
| CNC(=O)c1c(-c2ccc(F)cc2)oc2cc(N(CCO)S(C)(=O)=O)c(-c3ccccc3)cc12 | – | 62 | – |
| Cn1c(-c2ncc(Br)cn2)c(C2CCCC2)c2ccc(C(=O)NC3(c4nc5ccc(/C=C/C(=O)O)cc5[nH]4)CCC3)cc21 | – | 11 | IC50 [2]: 50 nM |
| CNC(=O)c1c(-c2ccc(F)cc2)oc2cc(N(C)S(C)(=O)=O)c(-c3ccc4c(n3)-c3cc5c(F)cccc5n3CO4)cc12 [MK-8876] | – | 2.2 | EC50 [6]: 2.7 nM; EC50 [4]: 7.3 nM |
| CNC(=O)c1c(-c2ccc(F)cc2)oc2cc(N(CCO)S(C)(=O)=O)c(C3CC3)cc12 [NESBUVIR] | – | 18 | EC50 [5]: 170 nM |
| CC1=CC[C@H](C(=O)N(c2cc(C#CC(C)(C)C)sc2C(=O)O)[C@H]2CC[C@](O)(CO[C@H]3CCOC3)CC2)CC1 [RADALBUVIR] | 2.9 | 6 | – |
